In brackets after ≈: the same amount, converted by molar mass.
Tests used:
Experiment in all cases: Agar dilution MIC
[1] = tested on: Porphyromonas gingivalis; type: cell-based; conditions: Porphyromonas gingivalis, 13 isolates
[2] = tested on: Bacteroides gracilis; type: cell-based, Bacteroides gracilis (Campylobacter gracilis); conditions: 11 isolates
[3] = tested on: Veillonella spp.; type: cell-based; conditions: Veillonella, 24 isolates
[4] = tested on: Clostridium ramosum; type: cell-based; conditions: 10 isolates
[5] = tested on: Anaerobiospirillum thomasii; type: cell-based; conditions: Anaerobiospirillum thomasii, 13 isolates
[6] = tested on: Fusobacterium spp. group 2; type: cell-based, Fusobacterium mortiferum, necrogenes, ulcerans; conditions: 12 isolates
[7] = tested on: Clostridium dfficile; type: cell-based, Clostridium difficile; conditions: Clostridium, read-out: Minimal Inhibitory Concentration 90% (MIC90), 14 isolates
[8] = tested on: Bacteroides tectum; type: cell-based; conditions: Bacteroides pyogenes, 22 isolates
[9] = tested on: Bilophila wadsworthia; type: cell-based; conditions: 16 isolates, agar supplemented with pyruvate
[10] = tested on: Clostridium inocuum; type: cell-based, Clostridium innocuum; conditions: Clostridium, 11 isolates
[11] = tested on: Prevotella intermedia; type: cell-based; conditions: Prevotella intermedia, 11 isolates
[12] = tested on: Peptostreptococcus prevotii; type: cell-based; conditions: 9 isolates
[13] = tested on: Porphyromonas canoris; type: cell-based; conditions: Porphyromonas canoris, 10 isolates
[14] = tested on: Peptostreptococcus magnus; type: cell-based; conditions: 13 isolates
[15] = tested on: Fusobacterium spp group 1; type: cell-based; conditions: Fusobacterium, 19 isolates
[16] = tested on: Prevotella buccae-oris group; type: cell-based; conditions: Prevotella, 22 isolates
[17] = tested on: Actinomyces odontolyticus; type: cell-based; conditions: Schaalia odontolytica, 10 isolates
[18] = tested on: Bacteroides ureolyticus; type: cell-based; conditions: 17 isolates
[19] = tested on: Anaerobiospirillum succiniciproducens; type: cell-based; conditions: 3 isolates
[20] = tested on: Prevotella bivia; type: cell-based; conditions: Prevotella bivia, 21 isolates
[21] = tested on: Fusobacterium varium; type: cell-based; conditions: 17 isolates
[22] = tested on: Prevotella heparinolytica; type: cell-based; conditions: Prevotella heparinolytica, 16 isolates
[23] = tested on: Porphyromonas spp.; type: cell-based, Porphyromonas cangingivalis, cansulci, circumdentaria, levii; conditions: Porphyromonas, 11 isolates
[24] = tested on: Peptostreptococcus asaccharolyticus; type: cell-based; conditions: Peptoniphilus asaccharolyticus, 11 isolates
[25] = tested on: Prevotella denticola/loeschii group; type: cell-based; conditions: Prevotella denticola, read-out: Minimal Inhibitory Concentration 50% (MIC50); 6 isolates
[26] = tested on: Fusobacterium russii; type: cell-based; conditions: Fusobacterium russii
[27] = tested on: Prevotella melaninogenica; type: cell-based; conditions: Prevotella melaninogenica, 12 isolates
[28] = tested on: Porphyromonas asaccharolyticus; type: cell-based, Porphyromonas asaccharolytica; conditions: Porphyromonas, 11 isolates
[29] = tested on: Peptostreptococcus micros; type: cell-based; conditions: 12 isolates
[30] = tested on: Porphyromonas macaccae; type: cell-based; conditions: Porphyromonas, 13 isolates
[31] = tested on: Actinomyces israelii; type: cell-based; conditions: 6 isolates
[32] = tested on: Clostridium clostridioforme; type: cell-based; conditions: Clostridium, 11 isolates
[33] = read-out: Minimal Inhibitory Concentration 50% (MIC50)
[34] = read-out: Minimal Inhibitory Concentration 90% (MIC90)

Structure (SMILES): CCC[C@@H]1C[C@@H](C(=O)N[C@@H]([C@H]2O[C@H](SC)[C@H](O)[C@@H](O)[C@H]2O)[C@H](C)Cl)N(C)C1 [Clindamycin]
- MIC50 [1, 33]: ≤ 0.015 µg/mL
- MIC90 [1, 34]: ≤ 0.015 µg/mL
- Minimal Inhibitory Concentration Range [2]: 0.03 to 8 µg/mL
- MIC90 ([2]; Campylobacter gracilis, read-out: Minimal Inhibitory Concentration 90% (MIC90)): 2 µg/mL (≈ 4.71 µM)
- MIC50 ([2]; Campylobacter gracilis, read-out: Minimal Inhibitory Concentration 50% (MIC50)): 0.25 µg/mL (≈ 0.588 µM)
- MIC90 [3, 34]: 2 µg/mL (≈ 4.71 µM)
- MIC50 [3, 33]: 0.06 µg/mL (≈ 0.141 µM)
- Minimal Inhibitory Concentration Range [4]: 0.25 to 4 µg/mL
- MIC50 ([4]; Thomasclavelia ramosa, read-out: Minimal Inhibitory Concentration 50% (MIC50)): 2 µg/mL (≈ 4.71 µM)
- MIC90 ([4]; Thomasclavelia ramosa, read-out: Minimal Inhibitory Concentration 90% (MIC90)): 2 µg/mL (≈ 4.71 µM)
- MIC50 [5, 33]: 32 µg/mL (≈ 75.3 µM)
- MIC90 [5, 34]: > 32 µg/mL
- Minimal Inhibitory Concentration Range [6]: 0.06 to 8 µg/mL
- MIC50 ([6]; Fusobacterium, read-out: Minimal Inhibitory Concentration 50% (MIC50)): 1 µg/mL (≈ 2.35 µM)
- MIC90 ([6]; Fusobacterium, read-out: Minimal Inhibitory Concentration 90% (MIC90)): 8 µg/mL (≈ 18.8 µM)
- MIC90 [7]: > 32 µg/mL
- MIC90 [8, 34]: ≤ 0.015 µg/mL
- MIC50 [8, 33]: ≤ 0.015 µg/mL
- Minimal Inhibitory Concentration Range [9]: 0.25 to 2 µg/mL
- MIC90 ([9]; Bilophila wadsworthia, read-out: Minimal Inhibitory Concentration 90% (MIC90)): 2 µg/mL (≈ 4.71 µM)
- MIC50 ([9]; Bilophila wadsworthia, read-out: Minimal Inhibitory Concentration 50% (MIC50)): 0.5 µg/mL (≈ 1.18 µM)
- MIC90 [10, 34]: > 32 µg/mL
- MIC50 [10, 33]: 0.5 µg/mL (≈ 1.18 µM)
- MIC90 [11, 34]: ≤ 0.015 µg/mL
- MIC50 [11, 33]: ≤ 0.015 µg/mL
- Minimal Inhibitory Concentration Range [12]: 0.030 to 32 µg/mL
- MIC50 ([12]; Anaerococcus prevotii, read-out: Minimal Inhibitory Concentration 50% (MIC50)): 1 µg/mL (≈ 2.35 µM)
- MIC50 [13, 33]: ≤ 0.015 µg/mL
- MIC90 [13, 34]: ≤ 0.015 µg/mL
- Minimal Inhibitory Concentration Range [14]: 0.06 to 2 µg/mL
- MIC50 ([14]; Finegoldia magna, read-out: Minimal Inhibitory Concentration 50% (MIC50)): 0.5 µg/mL (≈ 1.18 µM)
- MIC90 ([14]; Finegoldia magna, read-out: Minimal Inhibitory Concentration 90% (MIC90)): 2 µg/mL (≈ 4.71 µM)
- MIC50 ([15]; GROUP1, read-out: Minimal Inhibitory Concentration 50% (MIC50)): 0.06 µg/mL (≈ 0.141 µM)
- MIC90 ([15]; GROUP1, read-out: Minimal Inhibitory Concentration 90% (MIC90)): 0.125 µg/mL (≈ 0.294 µM)
- MIC90 [16, 34]: 0.03 µg/mL (≈ 0.0706 µM)
- MIC50 [16, 33]: ≤ 0.015 µg/mL
- MIC90 [17, 34]: 0.25 µg/mL (≈ 0.588 µM)
- MIC50 [17, 33]: 0.125 µg/mL (≈ 0.294 µM)
- Minimal Inhibitory Concentration Range [18]: 0.03 to 0.5 µg/mL
- MIC90 ([18]; Campylobacter ureolyticus, read-out: Minimal Inhibitory Concentration 90% (MIC90)): 0.25 µg/mL (≈ 0.588 µM)
- MIC50 ([18]; Campylobacter ureolyticus, read-out: Minimal Inhibitory Concentration 50% (MIC50)): 0.06 µg/mL (≈ 0.141 µM)
- Minimal Inhibitory Concentration Range [19]: 32 µg/mL
- MIC50 ([19]; Anaerobiospirillum succiniciproducens, read-out: Minimal Inhibitory Concentration 50% (MIC50)): 32 µg/mL (≈ 75.3 µM)
- MIC90 [20, 34]: 0.03 µg/mL (≈ 0.0706 µM)
- MIC50 [20, 33]: ≤ 0.015 µg/mL
- Minimal Inhibitory Concentration Range [21]: 0.06 to 16 µg/mL
- MIC50 ([21]; Fusobacterium varium, read-out: Minimal Inhibitory Concentration 50% (MIC50)): 4 µg/mL (≈ 9.41 µM)
- MIC90 ([21]; Fusobacterium varium, read-out: Minimal Inhibitory Concentration 90% (MIC90)): 16 µg/mL (≈ 37.6 µM)
- MIC90 [22, 34]: ≤ 0.015 µg/mL
- MIC50 [22, 33]: ≤ 0.015 µg/mL
- MIC50 [23, 33]: ≤ 0.015 µg/mL
- MIC90 [23, 34]: ≤ 0.015 µg/mL
- MIC50 [24, 33]: 0.06 µg/mL (≈ 0.141 µM)
- MIC90 [24, 34]: > 32 µg/mL
- MIC50 [25]: ≤ 0.015 µg/mL
- MIC50 [26, 33]: 0.03 µg/mL (≈ 0.0706 µM)
- MIC90 [26, 34]: 0.06 µg/mL (≈ 0.141 µM)
- MIC90 [27, 34]: 0.5 µg/mL (≈ 1.18 µM)
- MIC50 [27, 33]: ≤ 0.015 µg/mL
- MIC50 [28, 33]: ≤ 0.015 µg/mL
- MIC90 [28, 34]: > 32 µg/mL
- Minimal Inhibitory Concentration Range [29]: 0.06 to 0.125 µg/mL
- MIC50 ([29]; Parvimonas micra, read-out: Minimal Inhibitory Concentration 50% (MIC50)): 0.125 µg/mL (≈ 0.294 µM)
- MIC90 ([29]; Parvimonas micra, read-out: Minimal Inhibitory Concentration 90% (MIC90)): 0.125 µg/mL (≈ 0.294 µM)
- MIC50 [30, 33]: ≤ 0.015 µg/mL
- MIC90 [30, 34]: ≤ 0.015 µg/mL
- Minimal Inhibitory Concentration Range [31]: 0.06 to 0.25 µg/mL
- MIC50 ([31]; Actinomyces israelii, read-out: Minimal Inhibitory Concentration 50% (MIC50)): 0.06 µg/mL (≈ 0.141 µM)
- MIC90 [32, 34]: 2 µg/mL (≈ 4.71 µM)
- MIC50 [32, 33]: 0.06 µg/mL (≈ 0.141 µM)

Reference: patent US6455540B1, “Methods of use of quinolone compounds against anaerobic pathogenic bacteria” (priority 1999, dated 2002)
